Legend:
[1] = system: K562 (chronic myelogenous leukemia); test: Effect on tumor cell lines (Latham assay), K562; assay type: cell-based; conditions: Homo sapiens; K562 cells, examined 96 hours after treatment; read-out: Potencies (IC50) K 562
Method: (§1) The plated cells were treated 24 hours later with a compound of the invention dissolved in DMSO at multiple concentrations ranging from 0.01 μM to 100 μM. […] When necessary, the total number of viable cells was determined by trypsinizing the wells and counting the number of viable cells, as determined by trypan blue exclusion, using a hemacytometer.

[2] = system: DU145 (prostate cancer); test: Effect on tumor cell lines (Latham assay), DU145; assay type: cell-based; conditions: Homo sapiens, DU-145; DU145 cells, examined 96 hours after treatment; read-out: Potencies (IC50) DU 145
Method: as §1

Row | SMILES | IC50 [1] [µM] | IC50 [2] [µM] | melting point [°C]
1 | Cn1c(=O)c(S(=O)(=O)c2ccccc2)cc2cnc(Nc3ccc4cc[nH]c4c3)nc21 [Example 25, 2-(1H-indol-6-ylamino)-8-methyl-6-(phenylsulfonyl)pyrido[2,3-d]pyrimidin-7(8H)-one] | 25 to 50 | 25 to 50 | > 350
2 | Cc1ccc(S(=O)(=O)c2cc3cnc(Nc4ccc5c(c4)CC(=O)N5)nc3n(C)c2=O)cc1 [Example 27, 2-(2-oxoindolin-5-ylamino)-8-methyl-6-tosylpyrido[2,3-d]pyrimidin-7(8H)-one] | 25 to 50 | 50 to 100 | 280
3 | Cc1ccc(S(=O)(=O)c2cc3cnc(Nc4ccc5cc[nH]c5c4)nc3n(C)c2=O)cc1 [Example 28, 2-(1H-indol-6-ylamino)-8-methyl-6-tosylpyrido[2,3-d]pyrimidin-7(8H)-one] | 10 to 25 | 10 to 25 | 334 to 336
4 | Cn1c(=O)c(S(=O)(=O)c2ccc(F)c(Cl)c2)cc2cnc(Nc3cccc4[nH]ccc34)nc21 [Example 34, 2-(1H-indol-4-ylamino)-6-(3-chloro-4-fluorophenylsulfonyl)-8-methylpyrido[2,3-d]pyrimidin-7(8H)-one] | 50 to 100 | 50 to 100 | 315 to 320
5 | Cn1c(=O)c(S(=O)(=O)c2ccc(C(=O)O)cc2)cc2cnc(Nc3ccc4[nH]ccc4c3)nc21 [Example 37, 4-(2-(1H-indol-5-ylamino)-7,8-dihydro-8-methyl-7-oxopyrido[2,3-d]pyrimidin-6-ylsulfonyl)benzoic acid] | 10 to 25 | 10 to 25 | 262 to 265

Other lines, results leading:

Row | IC50 [1] [µM] | IC50 [2] [µM] | melting point [°C] | SMILES
6 | 1 to 10 | 1 to 10 | 305 to 310 | COC(=O)c1ccc(S(=O)(=O)c2cc3cnc(Nc4ccc5[nH]ccc5c4)nc3n(C)c2=O)cc1 [Example 26, methyl 4-(2-(1H-indol-5-ylamino)-7,8-dihydro-8-methyl-7-oxopyrido[2,3-d]pyrimidin-6-ylsulfonyl)benzoate]
7 | < 1 | < 1 | 260 to 262 | COc1ccc(S(=O)(=O)c2cc3cnc(Nc4ccc5[nH]ccc5c4)nc3n(C)c2=O)cc1 [Example 29, 2-(1H-indol-5-ylamino)-6-(4-methoxyphenylsulfonyl)-8-methylpyrido[2,3-d]pyrimidin-7(8H)-one]
8 | 1 to 10 | 1 to 10 | 289 to 292 | COc1ccc(S(=O)(=O)c2cc3cnc(Nc4cccc5[nH]ccc45)nc3n(C)c2=O)cc1 [Example 30, 2-(1H-indol-4-ylamino)-6-(4-methoxyphenylsulfonyl)-8-methylpyrido[2,3-d]pyrimidin-7(8H)-one]
9 | 1 to 10 | 1 to 10 | 320 to 324 | Cn1c(=O)c(S(=O)(=O)c2ccc(Cl)cc2)cc2cnc(Nc3cccc4[nH]ccc34)nc21 [Example 31, 2-(1H-indol-4-ylamino)-6-(4-chlorophenylsulfonyl)-8-methylpyrido[2,3-d]pyrimidin-7(8H)-one]
10 | 1 to 10 | 1 to 10 | 296 to 298 | Cn1c(=O)c(S(=O)(=O)c2ccc(Cl)cc2)cc2cnc(Nc3cnc4[nH]ccc4c3)nc21 [Example 32, 2-(1H-pyrrolo[2,3-b]pyridin-5-ylamino)-6-(4-chlorophenylsulfonyl)-8-methylpyrido[2,3-d]pyrimidin-7(8H)-one]
11 | < 1 | 1 to 10 | 250 to 255 | Cn1c(=O)c(S(=O)(=O)c2ccc(F)c(Cl)c2)cc2cnc(Nc3ccc4[nH]ccc4c3)nc21 [Example 33, 2-(1H-indol-5-ylamino)-6-(3-chloro-4-fluorophenylsulfonyl)-8-methylpyrido[2,3-d]pyrimidin-7(8H)-one]
12 | < 1 | < 1 | 320 to 325 | Cn1c(=O)c(S(=O)(=O)c2ccc(F)c(Cl)c2)cc2cnc(Nc3cnc4[nH]ccc4c3)nc21 [Example 35, 2-(1H-pyrrolo[2,3-b]pyridin-5-ylamino)-6-(3-chloro-4-fluorophenylsulfonyl)-8-methylpyrido[2,3-d]pyrimidin-7(8H)-one]
